Calls of active or inactive are those of the source. The calls are words filed in the database; no cut-off is given here.
Assays:
[1] = tested on: Human immunodeficiency virus 1; assay: Antiviral activity against HIV1; format: functional, organism-based
[2] = tested on: Human immunodeficiency virus 1; assay: Binding affinity to HIV1 Nucleocapsid protein expressed in Escherichia coli BL21(DE3) pLysE at 1:1 ratio of compound/protein by 1H NMR spectroscopy

Compound | Activity [1] | Activity [2]
Nc1ncc(-c2cnc(N)[nH]c2=O)c(=O)[nH]1 | inactive | 
Nc1nc(-c2c[nH]cn2)cc(=O)[nH]1 | inactive | Active
Nc1ncc(-c2c[nH]cn2)c(=O)[nH]1 | inactive | 
Nc1nc(-c2cc(=O)[nH]c(N)n2)cc(=O)[nH]1 | inactive | 
